Test results published in patent EP0745595A1, “3-(3-Aryloxyphenyl)-1-(substituted methyl)-s-triazine-2,4,6-oxo or thiotrione herbicidal agents” (American Cyanamid Company, priority 1995, dated 1996).

Assays:
Type in all cases: in vivo
[1] = tested on: SETARIA VIRIDIS, (L) BEAU; assay: Postemergence herbicidal evaluation, SETVI (Foxtail, Green); parameters: key to SETVI rating / Herbicidal effect rating, SETVI / SETVI: 0-9 visual rating scale vs untreated control
Summary of the method: (§1)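 Visual 0–9 scores reflect stand, vigor, malformation, size, chlorosis and overall appearance relative to control, taken 4–5 weeks after spraying two-week-old seedlings with about 0.125–0.500 kg/ha compound in acetone/water/TWEEN 20.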

[2] = tested on: ECHINOCHLOA CRUS-GALLI, (L) BEAU; assay: Postemergence herbicidal evaluation, ECHCG (Barnyardgrass); parameters: key to ECHCG rating / Herbicidal effect rating, ECHCG / ECHCG: 0-9 visual rating scale vs untreated control
Summary of the method: as §1

IPOMOEA SPP. = assay: Postemergence herbicidal evaluation, IPOSS (Morningglory spp.); conditions: for IPOSS, herbicide rating (0-9): rated four to five weeks after treatment, averaged
Summary of the method: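 Seedlings of morningglory (Ipomoea spp.) were raised in jiffy flats for roughly two weeks. They were then sprayed postemergence through a nozzle at 40 psi with test compound dispersed in 50/50 acetone/water containing 0.5% TWEEN®20 surfactant. Plants were kept on greenhouse benches under standard care and visually rated 0-9 against controls four to five weeks after treatment.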

[3] = tested on: ABUTILON THEOPHRASTI, MEDIC.; assay: Postemergence herbicidal evaluation, ABUTH (Velvetleaf); conditions: for ABUTH, herbicide rating (0-9): rated four to five weeks after treatment, averaged
Summary of the method: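 Velvetleaf (Abutilon theophrasti) seedlings were raised in jiffy flats for about two weeks and then sprayed postemergence. The test compound was dispersed in a 50/50 acetone/water mixture containing 0.5% TWEEN®20 and applied through a nozzle operating at 40 psi. Plants were kept on greenhouse benches and rated 0-9 four to five weeks after treatment.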

CASSIA OBTUSIFOLIA, L. = assay: Postemergence herbicidal evaluation, CASOB (Sicklepod); parameters: key to CASOB rating / Herbicidal effect rating, CASOB / CASOB: 0-9 visual rating scale vs untreated control; conditions: for CASOB, herbicide rating (0-9): rated four to five weeks after treatment, averaged
Summary of the method: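 Seedlings about two weeks old were sprayed with compound in 50/50 acetone/water containing 0.5% Tween 20 at about 0.125-0.500 kg/ha and kept in the greenhouse. Visual injury was rated on a 0-9 scale versus control 4-5 weeks after treatment; repeat tests were averaged.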

GALIUM APARINE = assay: Postemergence herbicidal evaluation, GALAP (Galium); parameters: key to GALAP rating / Herbicidal effect rating, GALAP / GALAP: 0-9 visual rating scale vs untreated control; conditions: for GALAP, herbicide rating (0-9): rated four to five weeks after treatment, averaged
Summary of the method: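 Galium (GALAP) seedlings were raised in jiffy flats for about two weeks, then sprayed with test compounds dispersed in 50/50 acetone/water containing 0.5% TWEEN®20, delivered through a nozzle at 40 psi. Plants were kept on greenhouse benches and visually rated 0-9 against a control four to five weeks later; repeat tests were averaged.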

CHENOPODIUM ALBUM, L. = assay: Preemergence herbicidal evaluation, CHEAL (Lambsquarters, Common); conditions: for CHEAL herbicidal rating: rated four to five weeks after treatment
Summary of the method: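 Injury scored visually (0–9; stand, vigor, malformation, size, chlorosis) versus untreated control, four to five weeks post-treatment. Application: aqueous acetone spray onto freshly planted soil cups, equivalent to about 0.125 to 0.50 kg/ha, plants then kept under standard greenhouse care.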

[4] = tested on: AMBROSIA ARTEMISIIFOLIA, L.; assay: Postemergence herbicidal evaluation, AMBEL (Ragweed, Common); conditions: for AMBEL, herbicide rating (0-9): rated four to five weeks after treatment, averaged
Summary of the method: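 Common ragweed (Ambrosia artemisiifolia) seedlings were raised in jiffy flats for roughly two weeks, then sprayed postemergence through a nozzle at 40 psi with the test compound dispersed in 50/50 acetone/water carrying 0.5% TWEEN®20. The plants were kept on greenhouse benches under conventional care. Four to five weeks later, injury was rated visually on a 0-9 scale, and repeat tests were averaged.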

[5] = tested on: ORYZA SATIVA, L. TEBONNET; assay: Rice tolerance to post-transplant applications under flooded paddy conditions, ORYSAT (Rice, Tebonnet); conditions: for Herbicidal effect rating, ORYSAT: post-transplant rice, 3-4 weeks after treatment; for ORYSAT: post-transplanted rice
Summary of the method: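 Post-transplant paddy test: compound applied 3 d after transplanting to flooded soil (1.5-3 cm water), ~0.063-0.5 kg/ha a.i., 50/50 aq/acetone. Silt loam, 2 × 10-d seedlings/pot. Greenhouse 3-4 wk, visual 0-9 score vs control.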

[6] = tested on: TRITICUM AESTIVUM, CV. APOLLO; assay: Postemergence herbicidal evaluation, TRZAWO (Wheat, Winter, CV. APOLLO); conditions: for TRZAWO, herbicide rating (0-9): crop, rated four to five weeks after treatment, averaged
Summary of the method: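 Wheat seedlings, raised in jiffy flats for roughly two weeks, were sprayed postemergence with test compound dispersed in a 50/50 acetone/water mixture containing 0.5% TWEEN®20 surfactant, delivered through a nozzle at 40 psi. Plants were then kept on greenhouse benches under conventional care. Four to five weeks after treatment they were rated visually on a 0-9 scale against an untreated control, and ratings from repeated tests were averaged.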

ZEA MAYS L. = assay: Postemergence herbicidal evaluation, ZEAMX (Corn, Field);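 also: higher means more injury with 8 approaching complete kill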
Summary of the method: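 Corn seedlings were raised in jiffy flats for roughly two weeks, then sprayed postemergence with the test material dispersed in 50/50 acetone/water containing 0.5% TWEEN®20 surfactant, using a nozzle at 40 psi. Plants were kept on greenhouse benches under standard care and visually rated on a 0-9 scale four to five weeks after treatment.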

COC(=O)Cn1c(=O)n(C)c(=O)n(-c2cc(Oc3c(F)cc(C(F)(F)F)cc3Cl)ccc2[N+](=O)[O-])c1=O [Compound 16, Methyl 3-{5-[(2-chloro-α,α,α,6-tetrafluoro-p-tolyl)oxy]-2-nitrophenyl}tetrahydro-5-methyl-2,4,6-trioxo-s-triazine-1(2H)-acetate]
2.0: ZEAMX (ZEA MAYS L.; Rate 0.008 kg/ha)
0.5: ECHCG ([2]; Rate 0.016 kg/ha)
6.4: TRZAWO ([6]; Rate 0.031 kg/ha)
0.7: ECHCG ([2]; Rate 0.031 kg/ha)
4.5: GALAP (GALIUM APARINE; Rate 0.008 kg/ha) | TRZAWO ([6]; Rate 0.008 kg/ha)
1.3: SETVI ([1]; Rate 0.125 kg/ha)
9.0: IPOSS (IPOMOEA SPP.; Rate 0.125 kg/ha) | IPOSS, herbicide rating (0-9) (IPOMOEA SPP.; Rate 0.125 kg/ha) | IPOSS, herbicide rating (0-9) (IPOMOEA SPP.; Rate 0.250 kg/ha) | IPOSS, herbicide rating (0-9) (IPOMOEA SPP.; Rate 0.500 kg/ha) | ABUTH ([3]; Rate 0.125 kg/ha) | ABUTH, herbicide rating (0-9) ([3]; Rate 0.125 kg/ha) | ABUTH, herbicide rating (0-9) ([3]; Rate 0.250 kg/ha) | ABUTH, herbicide rating (0-9) ([3]; Rate 0.500 kg/ha) | CASOB (CASSIA OBTUSIFOLIA, L.; Rate 0.031 kg/ha) | CASOB (CASSIA OBTUSIFOLIA, L.; Rate 0.125 kg/ha) | CASOB, herbicide rating (0-9) (CASSIA OBTUSIFOLIA, L.; Rate 0.125 kg/ha) | CASOB, herbicide rating (0-9) (CASSIA OBTUSIFOLIA, L.; Rate 0.250 kg/ha) | CASOB, herbicide rating (0-9) (CASSIA OBTUSIFOLIA, L.; Rate 0.500 kg/ha) | GALAP (GALIUM APARINE; Rate 0.063 kg/ha) | GALAP (GALIUM APARINE; Rate 0.125 kg/ha) | GALAP, herbicide rating (0-9) (GALIUM APARINE; Rate 0.125 kg/ha) | GALAP, herbicide rating (0-9) (GALIUM APARINE; Rate 0.250 kg/ha) | GALAP, herbicide rating (0-9) (GALIUM APARINE; Rate 0.500 kg/ha) | CHEAL (CHENOPODIUM ALBUM, L.; Rate 0.031 kg/ha) | CHEAL (CHENOPODIUM ALBUM, L.; Rate 0.063 kg/ha) | CHEAL (CHENOPODIUM ALBUM, L.; Rate 0.125 kg/ha) | CHEAL herbicidal rating (CHENOPODIUM ALBUM, L.; Rate 0.125 kg/ha) | CHEAL (CHENOPODIUM ALBUM, L.; Rate 0.250 kg/ha) | CHEAL herbicidal rating (CHENOPODIUM ALBUM, L.; Rate 0.250 kg/ha) | CHEAL herbicidal rating (CHENOPODIUM ALBUM, L.; Rate 0.500 kg/ha) | AMBEL ([4]; Rate 0.016 kg/ha) | AMBEL ([4]; Rate 0.031 kg/ha) | AMBEL ([4]; Rate 0.063 kg/ha) | AMBEL ([4]; Rate 0.125 kg/ha) | AMBEL, herbicide rating (0-9) ([4]; Rate 0.125 kg/ha) | AMBEL, herbicide rating (0-9) ([4]; Rate 0.250 kg/ha) | AMBEL, herbicide rating (0-9) ([4]; Rate 0.500 kg/ha)
8.3: IPOSS (IPOMOEA SPP.; Rate 0.063 kg/ha) | ABUTH ([3]; Rate 0.016 kg/ha) | ABUTH ([3]; Rate 0.063 kg/ha) | CASOB (CASSIA OBTUSIFOLIA, L.; Rate 0.063 kg/ha)
3.7: ECHCG ([2]; Rate 0.125 kg/ha)
8.4: TRZAWO ([6]; Rate 0.125 kg/ha) | TRZAWO, herbicide rating (0-9) ([6]; Rate 0.125 kg/ha) | TRZAWO, herbicide rating (0-9) ([6]; Rate 0.250 kg/ha) | TRZAWO, herbicide rating (0-9) ([6]; Rate 0.500 kg/ha)
6.0: IPOSS (IPOMOEA SPP.; Rate 0.008 kg/ha) | GALAP (GALIUM APARINE; Rate 0.016 kg/ha) | Herbicidal effect rating, ORYSAT ([5]; 0.500 kg/ha)
5.5: ABUTH ([3]; Rate 0.008 kg/ha) | CASOB (CASSIA OBTUSIFOLIA, L.; Rate 0.008 kg/ha)
2.4: ZEAMX (ZEA MAYS L.; Rate 0.016 kg/ha)
4.7: TRZAWO ([6]; Rate 0.016 kg/ha)
0.0: SETVI ([1]; Rate 0.008 kg/ha) | SETVI ([1]; Rate 0.016 kg/ha) | SETVI ([1]; Rate 0.031 kg/ha) | ECHCG ([2]; Rate 0.008 kg/ha)
8.7: CASOB (CASSIA OBTUSIFOLIA, L.; Rate 0.016 kg/ha)
7.4: TRZAWO ([6]; Rate 0.063 kg/ha)
8.0: ABUTH ([3]; Rate 0.031 kg/ha) | GALAP (GALIUM APARINE; Rate 0.031 kg/ha)
1.7: ECHCG ([2]; Rate 0.063 kg/ha)
7.0: IPOSS (IPOMOEA SPP.; Rate 0.016 kg/ha) | IPOSS (IPOMOEA SPP.; Rate 0.031 kg/ha) | AMBEL ([4]; Rate 0.008 kg/ha) | Herbicidal effect rating, ORYSAT ([5]; 0.250 kg/ha) | ORYSAT ([5]; Rate 0.250 kg/ha)
3.4: ZEAMX (ZEA MAYS L.; Rate 0.063 kg/ha)
5.0: Herbicidal effect rating, ORYSAT ([5]; 0.125 kg/ha) | ORYSAT ([5]; Rate 0.125 kg/ha)
0.8: SETVI ([1]; Rate 0.063 kg/ha)
3.5: Herbicidal effect rating, ORYSAT ([5]; 0.063 kg/ha) | ORYSAT ([5]; Rate 0.063 kg/ha)
3.0: ORYSAT ([5]; Rate 0.031 kg/ha) | ZEAMX (ZEA MAYS L.; Rate 0.031 kg/ha)
4.2: ZEAMX (ZEA MAYS L.; Rate 0.125 kg/ha)
